This data set in a line: Solubility in organic solvents. The format is physicochemical. The following applies: in dichlorobenzene at 60° C. An excerpt: All of the mono-bromo mono-cyano perylenes and dimeric perylenes are sufficiently soluble for processing in conventional organic solvents such as chloroform, xylene, dichlorobenzene, and anisole.

Our source for the Solubility values is patent US8569501B2, “Semiconductor materials and methods of preparation and use thereof” (BASF SE, priority 2008, dated 2013).

≈ marks a conversion by molar mass, not a printed value.

In general, Solubility refers to the concentration that dissolves in the medium under given conditions. A lower Solubility goes with a poorly soluble substance. In the case of `CCCCCCCCN1C(=O)c2ccc3c4c(-c5ccc(-c6ccc(-c7cc8c9c(ccc%10c%11c(C#N)cc%12c%13c(ccc(c7c9%10)c%13%11)C(=O)N(CCCCCCCC)C%12=O)C(=O)N(CCCCCCCC)C8=O)s6)s5)cc5c6c(ccc(c7c(C#N)cc(c2c37)C1=O)c64)C(=O)N(CCCCCCCC)C5=O` [BPDI(8)-BT, 5,5′-bis-[N,N′-bisoctyl-1-cyanoperylene-3,4:9,10-bis(dicarboxiimide)-7-yl]-2,2′-bithiophene], the Solubility came out at 7800 µg/mL (≈ 5.41 mM). The compound `CCCCC(C)N1C(=O)c2ccc3c4c(-c5ccc(-c6ccc(-c7cc8c9c(ccc%10c%11c(C#N)cc%12c%13c(ccc(c7c9%10)c%13%11)C(=O)N(C(C)CCCC)C%12=O)C(=O)N(C(C)CCCC)C8=O)s6)s5)cc5c6c(ccc(c7c(C#N)cc(c2c37)C1=O)c64)C(=O)N(C(C)CCCC)C5=O` (stereo not drawn) [BPDI(1MP)-BT, 5,5′-bis-[N,N′-bis(1-methylpentyl)-1-cyanoperylene-3,4:9,10-bis(dicarboxiimide)-7-yl]-2,2′-bithiophene] came in with a Solubility of 33900 µg/mL (≈ 25.5 mM).

`CCCCC(CC)CN1C(=O)c2ccc3c4c(-c5ccc(-c6ccc(-c7cc8c9c(ccc%10c%11c(C#N)cc%12c%13c(ccc(c7c9%10)c%13%11)C(=O)N(CC(CC)CCCC)C%12=O)C(=O)N(CC(CC)CCCC)C8=O)s6)s5)cc5c6c(ccc(c7c(C#N)cc(c2c37)C1=O)c64)C(=O)N(CC(CC)CCCC)C5=O` (stereo not drawn) [BPDI(2EH)-BT, 5,5′-bis-[N,N′-bis(2-ethylhexyl)-1-cyanoperylene-3,4:9,10-bis(dicarboxiimide)-7-yl]-2,2′-bithiophene] gave a Solubility of 5500 µg/mL (≈ 3.81 mM).
